The values that follow come from patent US5380729A, “12-hetero substituted 6,11-ethano-6,11-dihydrobenzo (b) quinolizinium salts and compositions and method of use thereof” (Sterling Winthrop Inc., priority 1993, dated 1995).

For one test, the system named is PCP recognition sites. Description: [3H]TCP Radioreceptor Assay (internal screen). The class given is binding, rat (male Sprague-Dawley. To be noted: @ 10 μM; rat whole brain membranes; room temperature, 25 min. As to the method: [^3 H]TCP Radioreceptor Assay (internal screen)
[^3 H]TCP binding to PCP recognition sites was performed as described by Vignon et al. Brain Research 1983, 280, 194°197. Male Sprague-Dawley rats were sacrificed by decapitation, and whole brains were homogenized in 10 volumes (wt/vol) of cold Tris-HCl buffer (50 mM, pH 7.7) using a Brinkmann Polytron (setting 6, 30 sec). The homogenate was centrifuged at 40,000×g for 10 min at 4° C. The supernatant was decanted, and the homogenization and centrifugation steps were repeated twice as described above. Following this, the pellet was resuspended in Tris-HCl (5 mM, pH 7.7) at a tissue concentration of 0.5°0.75 g/ml, and one ml aliquots were frozen at -70° C. until use. The binding characteristics for PCP recognition sites were not altered by the freezing of membrane suspensions.
On the day of the assay, membrane aliquots were thawed, resuspended in fresh 5 mM Tris-HCl buffer at a tissue concentration of 1 mg/ml, and stored on ice until use. Each assay tube contained 100 μl of [^3 H]TCP at a final concentration of approximately 1 nM, 100 μl of various concentrations of the compounds of interest, 500 μl of the tissue suspension and 300 of buffer to a final assay volume of 1 ml and a final protein concentration of 0.5 mg/tube. Non-specific binding was defined by addition of a final concentration of 100 μM PCP to blank tubes. All tubes were incubated at room temperature for 25 min before termination of the reaction by rapid filtration over Whatman GF/B glass fiber filters that had been presoaked in a solution of 0.5% polyethylenimine for at least 1 hr prior to use. Filters were washed with three 4 ml volumes of cold Tris buffer. Following addition of scintillation cocktail, the amount of bound radioactivity was determined by liquid scintillation spectrometry using a Beckman LS 5000TA liquid scintillation counter with an efficiency for tritium of approximately 55% . Inhibition constants (Ki values) were calculated using the EBDA/LIGAND program (McPherson, J. Pharmacol. Meth. 1985, 14, 213-228), purchased from Elsevier/Biosoft, Inc. Results are reported as Ki values or as a percent (%) inhibition of binding at 10
With `CCOC1(OCC)C2c3c(C(C)(C)C)ccc(OC(C)=O)c3C([n+]3ccccc32)C1(C)C.[O-][Cl+3]([O-])([O-])[O-]` (stereo not drawn) [Example 58, 6,11-ethano-12,12-diethoxy-13,13-dimethyl-7-acetoxy-10-t-butyl-6,11-dihydrobenzo[b]quinolizinium perchlorate], the “Percent inhibition, [3H]TCP (internal screen)” value worked out at 12%.

As for `CC1(C)C2c3ccccc3C(c3cccc[n+]32)C12O[C@H](COCc1ccccc1)[C@@H](COCc1ccccc1)O2` (stereo partly drawn) [Example 9, 12,12-(1R,2R-dibenzyloxymethyl-ethanediolketal)-13,13-dimethyl-6,11-ethano-6,11-dihydrobenzo[b]quinolizinium perchlorate], the “Percent inhibition, [3H]TCP (internal screen)” value is 11%.

The same test, now with this note: rat whole brain membranes; ~1 nM [3H]TCP; room temperature, 25 min.
For orientation: Ki means a measure of affinity in units of concentration, obtained from inhibition or displacement. Lower therefore signals a stronger hold on the target. `CCOC1(OCC)C2c3ccccc3C(C1C)[n+]1ccccc12.[O-][Cl+3]([O-])([O-])[O-]` (stereo not drawn) [Example 38, 6,11-ethano-12,12-diethoxy-13-methyl-6,11-dihydrobenzo[b]quinolizinium perchlorate] yielded a Ki of 33.8 nM.

As for `CCOC1(OCC)C2c3ccccc3C([n+]3ccccc32)C1(C)C` (stereo not drawn) [Example 2, 12,12-diethoxy-13,13-dimethyl-6,11-ethano-6,11-dihydrobenzo[b]quinolizinium chloride-1/4 H2 O], the Ki was found to be 5.3 nM.

For the molecule `CCOC1(OCC)CC2c3ccccc3C1c1cccc[n+]12` (stereo not drawn) [28(b), 6,11-ethano-12,12-diethoxy-6,11-dihydrobenzo[b]quinolizinium chloride], the affinity, expressed as Ki, was 4270 nM.

`CCOC1C2c3ccccc3C([n+]3ccccc32)C1(C)C` (single isomer, unassigned) [Example 49, 6,11-ethano-12-ethoxy-13,13-dimethyl-6,11-dihydrorbenzo[b]quinolizinium perchlorate] returned a Ki of 515 nM.

For `CCOC1(OCC)C2(C)c3c(OC)cccc3C([n+]3ccccc32)C1(C)C.[O-][Cl+3]([O-])([O-])[O-]` (stereo not drawn) [Example 32, 6,11-ethano-12,12-diethoxy-13,13-dimethyl-10-methoxy-11-methyl-6,11-dihydrobenzo[b]quinolizinium perchlorate], the affinity, expressed as Ki, was 63.7 nM. Against the preceding molecule, the Ki is about 8.1-fold lower.

`CCOC1(OCC)C2c3c(O)cccc3C([n+]3ccccc32)C1(C)C` (stereo not drawn) [15(c), 10-hydroxy-12,12-diethoxy-13,13-dimethyl-6,11-ethano-6,11-dihydrobenzo[b]quinolizinium chloride] gave an inhibitory constant (Ki) of 6.9 nM.

In turn, `CCOC1(OCC)C2c3ccccc3C([n+]3c(C)cccc32)C1(C)C` (stereo not drawn) [27(b), 6,11-ethano-12,12-diethoxy-13,13-dimethyl-4-methyl-6,11-dihydrobenzo[b]quinolizinium chloride] had a Ki of 314 nM.

For `COC1(O[Si](C)(C)C)C2c3ccccc3C([n+]3ccccc32)C1(C)C.[O-][Cl+3]([O-])([O-])[O-]` (stereo not drawn) [Example 40, 6,11-ethano-12-methoxy-12-trimethylsilyloxy-13,13-dimethyl-6,11-dihydrobenzo[b]quinolizinium perchlorate], affinity was put at a Ki of 1600 nM.

Turning to `CCOC1(OCC)C2c3cccc(OC)c3C([n+]3ccccc32)C1(C)C` (stereo not drawn) [Example 16, 7-methoxy-12,12-diethoxy-13,13-dimethyl-6,11-ethano-6,11-dihydrobenzo[b]quinolizinium hexafluorophosphate], the Ki was 1870 nM.

Take `CCOC1(OCC)C2c3c(O)cccc3C([n+]3ccccc32)C1(C)C.[O-][Cl+3]([O-])([O-])[O-]` (stereo not drawn) [15(b), 10-hydroxy-12,12-diethoxy-13,13-dimethyl-6,11-ethano-6,11-dihydrobenzo[b]quinolizinium perchlorate]: the affinity corresponds to a Ki of 7.87 nM.

Take `CCN(CC)C1C2c3ccccc3C(C1C)[n+]1ccccc12` (single isomer, unassigned) [Example 61, 6,11-ethano-12-(diethyl) amino-13-methyl-6,11-dihydrobenzo[b]quinolizinium diperchlorate]: the Ki turned out to be 5420 nM.

In turn, `CCOC1(OCC)C(C)C2c3ccccc3C1(C)c1cccc[n+]12.[O-][Cl+3]([O-])([O-])[O-]` (stereo not drawn) [63(l), 11-Methyl-12,12-diethoxy-13-methyl-6,11-ethano-6,11-dihydrobenzo[b]quinolizinium perchlorate] showed a Ki of 39.3 nM.

`CCOC1(OCC)C2c3ccccc3C([n+]3ccccc32)C1(C)C` (stereo not drawn) [Example 3, 12,12-diethoxy-13,13-dimethyl-6,11-ethano-6,11-dihydrobenzo[b]quinolizinium hexafluorophosphate] displayed a Ki of 5.56 nM.

`CCOC1C2c3ccccc3C([n+]3ccccc32)C1(C)C.[O-][Cl+3]([O-])([O-])[O-]` (stereo not drawn) [Example 48, 6,11-ethano-12-ethoxy-13,13-dimethyl-6,11-dihydrobenzo[b]quinolizinium perchlorate] had a Ki of 2150 nM.

In turn, `CCOC1(OCC)CC2c3ccccc3C1c1cccc[n+]12` (stereo not drawn) [63(a), 12,12-Diethoxy-6,11-ethano-6,11-dihydrobenzo[b]quinolizinium bromide] gave a Ki of 3590 nM.

Regarding `CCOC1(OCC)C2c3ccccc3C([n+]3ccccc32)C1(C)C` [Example 5, 12,12-diethoxy-13,13-dimethyl-6,11-ethano-6,11-dihydrobenzo[b]quinolizinium (S)-(+)-CH3 C(Ph)(OH)CO2^-], the Ki was 5.25 nM. Against the preceding molecule, the Ki is about 680-fold lower.

As for `CCOC1(OCC)C2c3cccc(C)c3C([n+]3ccccc32)C1(C)C` (stereo not drawn) [Example 55, 6,11-ethano-12,12-diethoxy-13,13-dimethyl-7-methyl-6,11-dihydrobenzo[b]quinolizinium chloride], the Ki was 455 nM.

`CC1(C)C2c3ccccc3C(c3cccc[n+]32)C12OCCCO2` (stereo not drawn) [22(b), 6,11-ethano-12,12-(1,3-propanediolketal)-13,13-dimethyl-6,11-dihydrobenzo[b]quinolizinium chloride]: the affinity corresponds to a Ki of 3300 nM.

Staying with this test, now noted: rat whole brain membranes; ~1 nM [3H]TCP; room temperature, 25 min; hydrate.
Turning to `CCOC1(OCC)C2c3c(OC)cccc3C([n+]3ccccc32)C1(C)C` (stereo not drawn) [19(d), 10-methoxy-12,12-diethoxy-13,13-dimethyl-6,11-ethano-6,11-dihydrobenzo[b]quinolizinium chloride·3/2 hydrate], the Ki was found to be 10.4 nM.

Molecule `C[C@@H]1C[C@@H](C)OC2(O1)C1c3ccccc3C([n+]3ccccc31)C2(C)C` (stereo partly drawn) [Example 11, 12,12-(2R,4R-pentanediolketal)-13,13-dimethyl-6,11-ethano-6,11-dihydrobenzo[b]-quinolizinium chloride·1/2 hydrate] registered an inhibitory constant (Ki) of 497 nM.

A further test deals with NMDA-induced neurotoxicity in cultured cortical neurons. Nature of the test: Antagonism of NMDA-induced neurotoxicity in cultured neurons (LDH release). The format is cell-based, mouse (Swiss-Webster). To be noted: 500 μM NMDA, 30 minutes; LDH activity at 24 hours; mouse cortical neurons. On the procedure:
Antagonism of NMDA-induced Neurotoxicityin Cultured Neurons
Preparation of Cultured Cortical Neurons
Pregnant, Swiss-Webster mice were obtained from Taconic Farms (Germantown, New York) and sacrificed 16 days post conception. Fetuses were removed and placed in a sterile dish containing Hank's balanced salt solution (HBSS), pH 7.4. Brain cortices were dissected, meninges were removed, the tissue was minced and placed into a solution of HBSS containing 0.25% (w/v) trypsin at 37° C. for 15 minutes. Tissue was then triturated with a sterile pasteur pipet, diluted with minimal essential media (Gibco 330-1430), pH 7.4, supplemented with 10% horse serum, 10% fetal calf serum, 2 mM 1-glutamine, 21 mM d-glucose, 2.2 g/L sodium bicarbonate, 1000 u/ml penicillin, and 1,000 μg/ml streptomycin. Cells were plated onto Falcon primaria 96 well plates at a final density of 50,000 cells/well and incubated at 37° C. in the presence of 5% (v/v) carbon dioxide. After 5 days, plating media was replaced with maintenance media containing minimal essential media (Gibco 330- 1430), pH 7.4, supplemented with 10% horse serum, 10% 1-glutamine, 21 mM d-glucose, 2.2 g/l sodium bicarbonate,1,000 U/ml penicillin, 1,000 μg/ml streptomycin, and 10 μM cytosine arabinoside. On days 7 and 10, media was replaced with maintenance media as above lacking the cytosine arabinoside. Experiments were conducted on day 13.
Neuroprotection Assessment
Day 13 cultured cortical neurons were washed twice with minimal essential media, pH 7.4 and then exposed for 30 minutes to 500 μM N-methyl-D-aspartic acid (NMDA) with or without varying concentrations of test agents. Dizocilpine (MK-801) at a final concentration of 10 μM MK-801 was routinely included as a positive control. MK-801 and test agents were prepared in minimal essential media supplemented with 21 mM d-glucose and 2.2 g/L sodium bicarbonate (MEM). After 30 minutes, media was replaced with MEM alone. Exposure of neurons to test agents was limited to the NMDA treatment period. Twenty-four hours after removal of NMDA, an aliquot of media from each well was removed for assessment of cell injury by determining lactate dehydrogenase (LDH) activity by. the method of Wroblewski and LaDue Proc. Soc. Exp. Biol. Med. 1955, 90, 210-213. The results are expressed as an IC50 (in nM) value (concentration causing 50% inhibition) for the antagonism of NMDA--inducedneurotoxicity.
A general note: LDH in the medium is a marker of cell lysis.
One may read the IC50 as the concentration that gives 50% inhibition. The molecule `CCOC1(OCC)C2c3ccccc3C(C1C)[n+]1ccccc12.[O-][Cl+3]([O-])([O-])[O-]` (stereo not drawn) [Example 38, 6,11-ethano-12,12-diethoxy-13-methyl-6,11-dihydrobenzo[b]quinolizinium perchlorate] showed an IC50 of 1160 nM.

Staying with this test, now noted: Cortical neurone; 500 μM NMDA, 30 minutes; LDH activity at 24 hours; mouse cortical neurons.
Molecule `CCOC1(OCC)C2c3ccccc3C(C1C)[n+]1ccccc12` (single isomer, unassigned) [Example 37, 6,11-ethano-12,12-diethoxy-13-methyl-6,11-dihydrobenzo[b]quinolizinium] came in with an IC50 of 810 nM.

`CCOC1(OCC)C2c3ccccc3C([n+]3ccccc32)C1(C)C` (stereo not drawn) [Example 2, 12,12-diethoxy-13,13-dimethyl-6,11-ethano-6,11-dihydrobenzo[b]quinolizinium chloride-1/4 H2 O] gave an IC50 of 30 to 50 nM.

`CCOC1(OCC)CC2c3ccccc3C1c1cccc[n+]12` (stereo not drawn) [28(b), 6,11-ethano-12,12-diethoxy-6,11-dihydrobenzo[b]quinolizinium chloride] had a half-maximal inhibitory concentration (IC50) of 95500 nM.

For the molecule `CCOC1(OCC)C2c3c(OC)cccc3C([n+]3ccccc32)C1(C)C` (stereo not drawn) [19(d), 10-methoxy-12,12-diethoxy-13,13-dimethyl-6,11-ethano-6,11-dihydrobenzo[b]quinolizinium chloride·3/2 hydrate], half-maximal inhibition (IC50) required 21.8 nM.
